Experimental data from ChEMBL document CHEMBL3885861, “Open TG-GATES”.

Species on record: Rattus norvegicus
Experiment: Open TG-GATES - Regimen: Single
Type: toxicity, organism-based, Sprague-Dawley
Parameters: regimen Single, gender Male, age 6 weeks
Details: in vivo, po, route gavage; for APTT / Bas / Eos / Fbg / Hb / Ht / Lym / MCH / MCHC / MCV / Mono / Neu / PT / Plat / RBC / Ret / WBC: tissue Blood; for A/G / ALP / ALT / AST / BUN / CRE / Ca / Cl / DBIL / GLC / IP / K / LDH / Na / PL / RALB / TBIL / TC / TG / TP / gamma-GTP: tissue Plasma
[1] = 30 mg/kg, 3 h, dose level Middle
[2] = 30 mg/kg, 6 h, dose level Middle
[3] = 30 mg/kg, 9 h, dose level Middle
[4] = 30 mg/kg, 24 h, dose level Middle
[5] = 100 mg/kg, 3 h, dose level High
[6] = 100 mg/kg, 6 h, dose level High
[7] = 100 mg/kg, 9 h, dose level High
[8] = 100 mg/kg, 24 h, dose level High

Cn1cc[nH]c1=S [METHIMAZOLE]
TERMINAL_BW [1]: 210.9 g | APTT [1]: 22.2 s | Bas [1]: 0% | Eos [1]: 1% | Fbg [1]: 305 mg/dL | Hb [1]: 14.3 g/dL | Ht [1]: 40.3% | Lym [1]: 73.2% | MCH [1]: 21.7 pg | MCHC [1]: 35.4% | MCV [1]: 61.4 fL | Mono [1]: 3% | Neu [1]: 21.8% | PT [1]: 15.9 s | Plat [1]: 120.3 x10_4/uL | RBC [1]: 657.4 x10_4/ul | Ret [1]: 8% | WBC [1]: 65.4 x10_2/uL | A/G [1]: 1.1 | ALP [1]: 1707.8 IU/L | ALT [1]: 42.8 IU/L | AST [1]: 72.2 IU/L | BUN [1]: 10.4 mg/dL | CRE [1]: 0.1 mg/dL | Ca [1]: 10.7 mg/dL | Cl [1]: 105 meq/L | DBIL [1]: 0 mg/dL | GLC [1]: 186.4 mg/dL | IP [1]: 10.1 mg/dL | K [1]: 4.3 meq/L | LDH [1]: 250.2 IU/L | Na [1]: 141.6 meq/L | PL [1]: 146 mg/dL | RALB [1]: 2.9 g/dL | TBIL [1]: 0.006 mg/dL | TC [1]: 82.4 mg/dL | TG [1]: 64.4 mg/dL | TP [1]: 5.7 g/dL | gamma-GTP [1]: 1 IU/L | TERMINAL_BW [2]: 208.1 g | APTT [2]: 22.7 s | Bas [2]: 0% | Eos [2]: 1% | Fbg [2]: 316.8 mg/dL | Hb [2]: 14 g/dL | Ht [2]: 40% | Lym [2]: 73.6% | MCH [2]: 22 pg | MCHC [2]: 35% | MCV [2]: 62.7 fL | Mono [2]: 2.8% | Neu [2]: 21.8% | PT [2]: 16.2 s | Plat [2]: 123.7 x10_4/uL | RBC [2]: 637.2 x10_4/ul | Ret [2]: 8.4% | WBC [2]: 68.1 x10_2/uL | A/G [2]: 1.2 | ALP [2]: 1225.2 IU/L | ALT [2]: 46.2 IU/L | AST [2]: 71.8 IU/L | BUN [2]: 11.8 mg/dL | CRE [2]: 0.1 mg/dL | Ca [2]: 10.6 mg/dL | Cl [2]: 103.4 meq/L | DBIL [2]: 0.002 mg/dL | GLC [2]: 196.2 mg/dL | IP [2]: 9.4 mg/dL | K [2]: 4.2 meq/L | LDH [2]: 329.8 IU/L | Na [2]: 140.4 meq/L | PL [2]: 141.2 mg/dL | RALB [2]: 2.9 g/dL | TBIL [2]: 0.01 mg/dL | TC [2]: 79.8 mg/dL | TG [2]: 45 mg/dL | TP [2]: 5.5 g/dL | gamma-GTP [2]: 1 IU/L | TERMINAL_BW [3]: 205.3 g | APTT [3]: 22.1 s | Bas [3]: 0% | Eos [3]: 1.2% | Fbg [3]: 299.8 mg/dL | Hb [3]: 13.7 g/dL | Ht [3]: 38.8% | Lym [3]: 75.4% | MCH [3]: 21.5 pg | MCHC [3]: 35.4% | MCV [3]: 60.8 fL | Mono [3]: 2.4% | Neu [3]: 20.2% | PT [3]: 15.7 s | Plat [3]: 121.8 x10_4/uL | RBC [3]: 640 x10_4/ul | Ret [3]: 8.1% | WBC [3]: 70 x10_2/uL | A/G [3]: 1.2 | ALP [3]: 1422 IU/L | ALT [3]: 43.8 IU/L | AST [3]: 71.4 IU/L | BUN [3]: 12.8 mg/dL | CRE [3]: 0.1 mg/dL | Ca [3]: 10.5 mg/dL | Cl [3]: 105.2 meq/L | DBIL [3]: 0.004 mg/dL | GLC [3]: 198 mg/dL | IP [3]: 8.7 mg/dL | K [3]: 3.8 meq/L | LDH [3]: 353.6 IU/L | Na [3]: 140.6 meq/L | PL [3]: 155.8 mg/dL | RALB [3]: 3 g/dL | TBIL [3]: 0.012 mg/dL | TC [3]: 85.4 mg/dL | TG [3]: 81 mg/dL | TP [3]: 5.6 g/dL | gamma-GTP [3]: 1 IU/L | TERMINAL_BW [4]: 212.4 g | APTT [4]: 21 s | Bas [4]: 0% | Eos [4]: 1% | Fbg [4]: 320.4 mg/dL | Hb [4]: 13.9 g/dL | Ht [4]: 39.6% | Lym [4]: 76.6% | MCH [4]: 21.8 pg | MCHC [4]: 35.2% | MCV [4]: 62 fL | Mono [4]: 2.4% | Neu [4]: 19% | PT [4]: 16.3 s | Plat [4]: 115.8 x10_4/uL | RBC [4]: 640 x10_4/ul | Ret [4]: 7.8% | WBC [4]: 84 x10_2/uL | A/G [4]: 1.1 | ALP [4]: 1634.4 IU/L | ALT [4]: 42.4 IU/L | AST [4]: 64.6 IU/L | BUN [4]: 15.4 mg/dL | CRE [4]: 0.1 mg/dL | Ca [4]: 10.7 mg/dL | Cl [4]: 106 meq/L | DBIL [4]: 0 mg/dL | GLC [4]: 180.6 mg/dL | IP [4]: 7 mg/dL | K [4]: 4.4 meq/L | LDH [4]: 211.4 IU/L | Na [4]: 141.6 meq/L | PL [4]: 158.6 mg/dL | RALB [4]: 3 g/dL | TBIL [4]: 0.002 mg/dL | TC [4]: 84.6 mg/dL | TG [4]: 131.4 mg/dL | TP [4]: 5.6 g/dL | gamma-GTP [4]: 1 IU/L | TERMINAL_BW [5]: 213.6 g | APTT [5]: 21.9 s | Bas [5]: 0% | Eos [5]: 1.2% | Fbg [5]: 315 mg/dL | Hb [5]: 13.9 g/dL | Ht [5]: 39.4% | Lym [5]: 74% | MCH [5]: 21.8 pg | MCHC [5]: 35.2% | MCV [5]: 61.9 fL | Mono [5]: 2% | Neu [5]: 23% | PT [5]: 15.4 s | Plat [5]: 121.9 x10_4/uL | RBC [5]: 636.8 x10_4/ul | Ret [5]: 8.7% | WBC [5]: 50 x10_2/uL | A/G [5]: 1.2 | ALP [5]: 1490.2 IU/L | ALT [5]: 55 IU/L | AST [5]: 72.8 IU/L | BUN [5]: 11.8 mg/dL | CRE [5]: 0.1 mg/dL | Ca [5]: 10.6 mg/dL | Cl [5]: 102.8 meq/L | DBIL [5]: 0.002 mg/dL | GLC [5]: 191.2 mg/dL | IP [5]: 9.7 mg/dL | K [5]: 4.2 meq/L | LDH [5]: 351.4 IU/L | Na [5]: 140 meq/L | PL [5]: 153.6 mg/dL | RALB [5]: 3 g/dL | TBIL [5]: 0.008 mg/dL | TC [5]: 89.2 mg/dL | TG [5]: 62.8 mg/dL | TP [5]: 5.6 g/dL | gamma-GTP [5]: 1 IU/L | TERMINAL_BW [6]: 210.2 g | APTT [6]: 22.6 s | Bas [6]: 0% | Eos [6]: 0.8% | Fbg [6]: 306.6 mg/dL | Hb [6]: 14.1 g/dL | Ht [6]: 40.5% | Lym [6]: 72.4% | MCH [6]: 21.4 pg | MCHC [6]: 34.7% | MCV [6]: 61.7 fL | Mono [6]: 3% | Neu [6]: 23% | PT [6]: 16 s | Plat [6]: 117.2 x10_4/uL | RBC [6]: 657.2 x10_4/ul | Ret [6]: 7.8% | WBC [6]: 83.4 x10_2/uL | A/G [6]: 1.1 | ALP [6]: 1474.2 IU/L | ALT [6]: 46.2 IU/L | AST [6]: 66.8 IU/L | BUN [6]: 10 mg/dL | CRE [6]: 0.1 mg/dL | Ca [6]: 10.5 mg/dL | Cl [6]: 104.4 meq/L | DBIL [6]: 0.002 mg/dL | GLC [6]: 193 mg/dL | IP [6]: 9.1 mg/dL | K [6]: 4.2 meq/L | LDH [6]: 344.8 IU/L | Na [6]: 140.2 meq/L | PL [6]: 136.6 mg/dL | RALB [6]: 2.9 g/dL | TBIL [6]: 0.014 mg/dL | TC [6]: 80.2 mg/dL | TG [6]: 52.4 mg/dL | TP [6]: 5.5 g/dL | gamma-GTP [6]: 1.2 IU/L | TERMINAL_BW [7]: 206.1 g | APTT [7]: 21.2 s | Bas [7]: 0% | Eos [7]: 1% | Fbg [7]: 319.2 mg/dL | Hb [7]: 13.8 g/dL | Ht [7]: 39% | Lym [7]: 71.4% | MCH [7]: 21.8 pg | MCHC [7]: 35.3% | MCV [7]: 61.7 fL | Mono [7]: 2.8% | Neu [7]: 23.4% | PT [7]: 16.5 s | Plat [7]: 134.8 x10_4/uL | RBC [7]: 631.2 x10_4/ul | Ret [7]: 8.1% | WBC [7]: 88.6 x10_2/uL | A/G [7]: 1.2 | ALP [7]: 1403 IU/L | ALT [7]: 47 IU/L | AST [7]: 69.8 IU/L | BUN [7]: 12.6 mg/dL | CRE [7]: 0.1 mg/dL | Ca [7]: 10.4 mg/dL | Cl [7]: 105.6 meq/L | DBIL [7]: 0.004 mg/dL | GLC [7]: 195.2 mg/dL | IP [7]: 8.6 mg/dL | K [7]: 4.2 meq/L | LDH [7]: 309.6 IU/L | Na [7]: 140.6 meq/L | PL [7]: 144.4 mg/dL | RALB [7]: 2.9 g/dL | TBIL [7]: 0.014 mg/dL | TC [7]: 78.6 mg/dL | TG [7]: 71.6 mg/dL | TP [7]: 5.5 g/dL | gamma-GTP [7]: 1 IU/L | TERMINAL_BW [8]: 209.2 g | APTT [8]: 20.8 s | Bas [8]: 0% | Eos [8]: 1.2% | Fbg [8]: 303.8 mg/dL | Hb [8]: 14.1 g/dL | Ht [8]: 40% | Lym [8]: 76.8% | MCH [8]: 21.6 pg | MCHC [8]: 35.3% | MCV [8]: 61.1 fL | Mono [8]: 2.4% | Neu [8]: 18.8% | PT [8]: 16.5 s | Plat [8]: 125.7 x10_4/uL | RBC [8]: 655.6 x10_4/ul | Ret [8]: 7.6% | WBC [8]: 63.5 x10_2/uL | A/G [8]: 1.2 | ALP [8]: 1903.8 IU/L | ALT [8]: 44.2 IU/L | AST [8]: 55.6 IU/L | BUN [8]: 12.6 mg/dL | CRE [8]: 0.1 mg/dL | Ca [8]: 10.9 mg/dL | Cl [8]: 106.4 meq/L | DBIL [8]: 0.004 mg/dL | GLC [8]: 170 mg/dL | IP [8]: 7.2 mg/dL | K [8]: 4.3 meq/L | LDH [8]: 263 IU/L | Na [8]: 142 meq/L | PL [8]: 159.8 mg/dL | RALB [8]: 2.9 g/dL | TBIL [8]: 0.016 mg/dL | TC [8]: 84.6 mg/dL | TG [8]: 129.6 mg/dL | TP [8]: 5.4 g/dL | gamma-GTP [8]: 1 IU/L
